We go through 13 compounds from patent US20240294551A1 (AMGEN INC., priority 2022, published 2024).

Like-named read-outs stand apart in the source and are kept apart here.

One assay concerns AsPC-1 cells. In words: AsPC-1 CTG Assay (CellTiter-Glo cell viability). Type of assay: cell-based, human. The note with it: Homo sapiens, ASPC1, 72 h, first value of the cell, read-out: G12D/C/V Cell Proliferation CTG (72 h) AsPC-1. An outline of the steps:
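Human pancreatic AsPC-1 or colon SW620 cells in RPMI 1640 with 10% FBS, seeded overnight, then exposed to serially diluted compound for 72 h at 37 °C. CellTiter-Glo luminescence normalized to DMSO control; IC50 from a 4-parameter logistic model.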

Assay [1] concerns Phosphorylation of ERK1/2 in AsPC-1 cells. In words: Phospho-ERK1/2 MSD Assay. The class given is cell-based, human. The note with it: Homo sapiens, ASPC1, 2 h. The essentials:
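Read-out: MSD electrochemiluminescent detection of phosphorylated ERK1/2 in whole-cell lysates, fitted to a 4-parameter logistic curve for IC50. Prior to lysis, AsPC-1 cells (25,000 per well) received a 2 h compound dose-response at 37 °C.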

Assay [2] concerns the target GDP-bound KRAS protein (aa 1-169), containing both G12D and C118A amino acid substitutions (Homo sapiens (Human), UniProt P01116, C118A/G12D). Briefly: KRAS G12D Coupled Nucleotide Exchange Assay. Type of assay: biochemical.
The target of assay [3] is His-tagged KRAS G12D protein (Homo sapiens (Human), UniProt P01116, G12D). In words: KRAS G12D TR-FRET Assay. Type of assay: binding. The essentials:
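His-tagged KRAS G12D (diluted to 20 nM in pH 7.4 HEPES buffer with 10 mM MgCl2 and 10 μM GDP) was preincubated with titrated compound for 30 min at room temperature. Biotinylated KRPep-2d peptide (diluted to 20 nM) was then added for 1 h, and displacement was monitored by TR-FRET.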
In general terms: Time-resolved FRET reads energy transfer from a long-lived donor to a nearby acceptor.

[4] abbreviates: read-out: 2 h p-ERK (AsPC-1 cells), IC50.
Setting [5] is: read-out: KRAS G12D Coupled Exchange IC50.
The mark [6] stands for this setting: read-out: KRAS G12D Binding IC50.
Setting [7] is: read-out: 2 h p-ERK (AsPC-1 cells).
The mark [8] stands for this setting: 2 hours compound pre-incubation, read-out: KRAS G12D Coupled Exchange.
Where [9] appears, read: TR-FRET, read-out: KRAS G12D Binding.

His-tagged KRAS G12D protein, sequence (P01116 other isoform, or with tags, fused parts or gaps G12D): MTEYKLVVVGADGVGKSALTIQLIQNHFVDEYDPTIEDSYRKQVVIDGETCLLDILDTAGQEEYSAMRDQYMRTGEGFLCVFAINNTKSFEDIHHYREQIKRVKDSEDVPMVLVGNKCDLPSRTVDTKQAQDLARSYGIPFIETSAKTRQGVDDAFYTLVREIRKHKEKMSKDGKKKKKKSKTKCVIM
GDP-bound KRAS protein (aa 1-169), containing both G12D and C118A amino acid substitutions, sequence (P01116 other isoform, or with tags, fused parts or gaps G12D/C118A): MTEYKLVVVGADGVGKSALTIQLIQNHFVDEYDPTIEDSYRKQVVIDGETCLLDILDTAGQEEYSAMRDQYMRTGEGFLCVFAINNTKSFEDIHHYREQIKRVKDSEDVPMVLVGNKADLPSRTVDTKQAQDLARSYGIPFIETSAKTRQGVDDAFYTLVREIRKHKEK

As to `Cc1cc2[nH]ncc2c2c1CCOC(=O)O[C@H]1C[C@]3(CCCN(C3)c3nc(OC[C@@]45CCCN4C[C@H](F)C5)nc4cc-2ncc34)C1` [Example 349, (1R,3S)-24-(((2R,7aS)-2-fluorotetrahydro-1H-pyrrolo[1,2-a]pyrrol-7a(5H)-yl)methoxy)-10-methyl-4,6-dioxa-13,14,19,23,25,27-hexaazaheptacyclo[25.3.1.1~1,3~.1~18,22~.0~9,17~.0~12,16~.0~21,26~]tritriaconta-9,11,14,16,18(32),19,21,23,25-nonaen-5-one], the IC50 in the assay with AsPC-1 cells (AsPC-1, 72 h) was determined as 645 nM; in assay [1] (setting [4]), 30.4 nM; in assay [2] (setting [5]), 2 nM; in assay [3] (setting [6]), 5 nM.

On to `O=C1OCCc2c(Cl)cc3[nH]ncc3c2-c2ncc3c(nc(OC[C@@]45CCCN4C[C@@H](F)C5)nc3c2F)N2CCC[C@]3(C2)C[C@H](C3)O1` [Example 350, (1R,3S)-10-chloro-32-fluoro-24-(((2S,7aS)-2-fluorotetrahydro-1H-pyrrolo[1,2-a]pyrrol-7a(5H)-yl)methoxy)-4,6-dioxa-13,14,19,23,25,27-hexaazaheptacyclo[25.3.1.1~1,3~.1~18,22~.0~9,17~.0~12,16~.0~21,26~]tritriaconta-9,11,14,16,18(32),19,21,23,25-nonaen-5-one], for which the IC50 was 545 nM in the assay with AsPC-1 cells (AsPC-1, 72 h); 58.1 nM in assay [1] (setting [4]); 3 nM in assay [2] (setting [5]); 6 nM in assay [3] (setting [6]).

Regarding `O=C1OCCCc2c(Cl)cc(O)cc2-c2ncc3c(nc(OC[C@@]45CCCN4C[C@H](F)C5)nc3c2F)N2CCOC[C@H](C2)O1` [Example 355, (23S)-15-chloro-29-fluoro-4-(((2R,7aS)-2-fluorotetrahydro-1H-pyrrolo[1,2-a]pyrrol-7a(5H)-yl)methoxy)-13-hydroxy-20,22,25-trioxa-1,3,5,9-tetraazapentacyclo[21.4.1.1~6,10~.0~2,7~.0~11,16~]nonacosa-2,4,6,8,10(29),11,13,15-octaen-21-one], the IC50 in the assay on AsPC-1 cells (AsPC-1, 72 h) was determined as 82 nM; in assay [1] (setting [4]) it was 5.2 nM; in assay [2] (setting [5]), 1 nM; in assay [3] (setting [6]) it was 2 nM.

Turning to `O=C1OCCc2c(F)cc3[nH]ncc3c2-c2ncc3c(nc(OC[C@@]45CCCN4C[C@H](F)C5)nc3c2F)N2CCC[C@]3(C2)C[C@H](C3)O1` [Example 356, (1R,3S)-10,32-difluoro-24-(((2R,7aS)-2-fluorotetrahydro-1H-pyrrolo[1,2-a]pyrrol-7a(5H)-yl)methoxy)-4,6-dioxa-13,14,19,23,25,27-hexaazaheptacyclo[25.3.1.1~1,3~.1~18,22~.0~9,17~.0~12,16~.0~21,26~]tritriaconta-9,11,14,16,18(32),19,21,23,25-nonaen-5-one], the IC50 in the assay with AsPC-1 cells (AsPC-1, 72 h) was determined as 94 nM; in assay [1] (setting [4]) it was 8.2 nM; in assay [2] (setting [5]), 3 nM; in assay [3] (setting [6]) it was 4 nM.

As to `O=C1OCCc2c(Cl)cc3[nH]ncc3c2-c2cc3nc(OC[C@@]45CCCN4C[C@H](F)C5)nc(c3nn2)N2CCC[C@]3(C2)C[C@H](C3)O1` [Example 357, (1R,3S)-10-chloro-24-(((2R,7aS)-2-fluorotetrahydro-1H-pyrrolo[1,2-a]pyrrol-7a(5H)-yl)methoxy)-4,6-dioxa-13,14,19,20,23,25,27-heptaazaheptacyclo[25.3.1.1~1,3~.1~18,22~.0~9,17~.0~12,16~.0~21,26~]tritriaconta-9,11,14,16,18(32),19,21,23,25-nonaen-5-one], the IC50 is 1970 nM in the assay on AsPC-1 cells (AsPC-1, 72 h); 234 nM in assay [1] (setting [4]); 10 nM in assay [2] (setting [5]); 14 nM in assay [3] (setting [6]).

Take `C#CCO[C@@H]1CN2CCC[C@@]2(COc2nc3c4cnc(c(F)c4n2)-c2c(c(Cl)cc4[nH]ncc24)CCCOC(=O)O[C@@H]2COCCN3C2)C1` [Example 369, (26S)-18-Chloro-32-fluoro-4-(((2S,7aS)-2-(2-propyn-1-yloxy)tetrahydro-1H-pyrrolo[1,2-a]pyrrol-7a(5H)-yl)methoxy)-23,25,28-trioxa-1,3,5,9,14,15 hexaazahexacyclo[24.4.1.1˜6,10˜.0˜2,7˜.0˜11,19˜.0˜12,16˜]dotriaconta-2,4,6,8,10(32),11,13,16,18-nonaen-24-one]: the IC50 is 5000 nM in the assay with AsPC-1 cells (AsPC-1, 72 h); 363 nM in assay [1] (setting [4]); 8 nM in assay [2] (setting [5]); 13 nM in assay [3] (setting [6]).

With `Fc1c2ncc3c(nc(OC[C@@]45CCCN4C[C@H](F)C5)nc13)N1CCO[C@@H](Cc3ncc(o3)CCc3c(Cl)cc4[nH]ncc4c3-2)C1` [Example 374], the IC50 is 127 nM in the assay on AsPC-1 cells (AsPC-1 cells (G12D), 72 h); 32.7 nM in assay [1] (setting [7]); 4 nM in assay [2] (setting [8]); 5 nM in assay [3] (setting [9]).

For the compound `Fc1c2ncc3c(nc(OC[C@@]45CCCN4C[C@H](F)C5)nc13)N1CCO[C@H](C1)c1coc(n1)CCCc1c(Cl)cc3[nH]ncc3c1-2` [Example 390, (18R)-9-chloro-31-fluoro-25-(((2R,7aS)-2-fluorotetrahydro-1H-pyrrolo[1,2-a]pyrrol-7a(5H)-yl)methoxy)-15,19-dioxa-5,6,22,24,26,30,33-heptaazaheptacyclo[25.3.1.1~14,17~.1~18,22~.0~2,10~.0~3,7~.0~23,28~]tritriaconta-1(31),2,4,7,9,14(33),16,23,25,27,29-undecaene], the IC50 in the assay on AsPC-1 cells (AsPC-1 cells (G12D), 72 h) is 74 nM; in assay [1] (setting [7]), 9.5 nM; in assay [2] (setting [8]), 3 nM; in assay [3] (setting [9]) it was 5 nM.

`Fc1c2ncc3c(nc(OC[C@@]45CCCN4C[C@H](F)C5)nc13)N1CCO[C@@H](COCC[C@@H]3C[C@@H]3c3c(Cl)cc4[nH]ncc4c3-2)C1` [Example 392, (11S,13S,18R)-9-chloro-31-fluoro-25-(((2R,7aS)-2-fluorotetrahydro-1H-pyrrolo[1,2-a]pyrrol-7a(5H)-yl)methoxy)-16,19-dioxa-5,6,22,24,26,30-hexaazaheptacyclo[25.3.1.1~18,22~.0~2,10~.0~3,7~.0~11,13~.0~23,28~]dotriaconta-1(31),2,4,7,9,23,25,27,29-nonaene]: the IC50 came to 291 nM in the assay with AsPC-1 cells (AsPC-1 cells (G12D), 72 h); 31.5 nM in assay [1] (setting [7]); 4 nM in assay [2] (setting [8]); 6 nM in assay [3] (setting [9]).

As to `O[C@]12C[C@@]3(CCCN(C3)c3nc(OC[C@@]45CCCN4C[C@H](F)C5)nc4c(F)c(ncc34)-c3c(c(Cl)cc4[nH]ncc34)CCc3cnc1o3)C2` [Example 396, (1S,3R)-11-chloro-33-fluoro-25-(((2R,7aS)-2-fluorotetrahydro-1H-pyrrolo[1,2-a]pyrrol-7a(5H)-yl)methoxy)-34-oxa-5,14,15,20,24,26,28-heptaazaoctacyclo[26.3.1.1~1,3~.1~4,7~.1~19,23~.0~10,18~.0~13,17~.0~22,27~]pentatriaconta-4,6,10,12,15,17,19(33),20,22,24,26-undecaen-3-ol], the IC50 in the assay on AsPC-1 cells (AsPC-1 cells (G12D), 72 h) amounted to 2 nM; in assay [1] (setting [7]), 1.2 nM; in assay [2] (setting [8]), 3 nM; in assay [3] (setting [9]), 7 nM.

For `O=C1CCCCc2c(Cl)cc3[nH]ncc3c2-c2ncc3c(nc(OC[C@@]45CCCN4C[C@H](F)C5)nc3c2F)N2CC[C@@H]3[C@H](C2)N1CC3(F)F` [Example 403, (28R,32R)-18-chloro-27,27,33-trifluoro-4-(((2R,7aS)-2-fluorotetrahydro-1H-pyrrolo[1,2-a]pyrrol-7a(5H)-yl)methoxy)-1,3,5,9,14,15,25-heptaazaheptacyclo[23.5.2.1~6,10~.0~2,7~.0~11,19~.0~12,16~.0~28,32~]tritriaconta-2,4,6,8,10(33),11,13,16,18-nonaen-24-one], the IC50 in the assay on AsPC-1 cells (AsPC-1 cells (G12D), 72 h) is 639 nM; in assay [1] (setting [7]), 180 nM; in assay [2] (setting [8]), 2 nM; in assay [3] (setting [9]), 3 nM.

Take `CN(C)CC1(COc2nc3c4cnc(c(F)c4n2)-c2c(c(Cl)cc4[nH]ncc24)CCCCO[C@H]2C[C@]4(CCCN3C4)C2)CC1` [Example 405, 1-(1-((((1S,3R)-10-chloro-32-fluoro-4-oxa-13,14,19,23,25,27-hexaazaheptacyclo[25.3.1.1~1,3~.1~18,22~.0~9,17~.0~12,16~.0~21,26~]tritriaconta-9,11,14,16,18(32),19,21,23,25-nonaen-24-yl)oxy)methyl)cyclopropyl)-N,N-dimethylmethanamine]: the IC50 in the assay with AsPC-1 cells (AsPC-1 cells (G12D), 72 h) came to 174 nM; in assay [1] (setting [7]), 41.2 nM; in assay [2] (setting [8]), 4 nM; in assay [3] (setting [9]) it was 5 nM.

Turning to `O[C@@H]1C[C@@H]2COCCCCc3c(Cl)cc4[nH]ncc4c3-c3ncc4c(nc(OC[C@@]56CCCN5C[C@H](F)C6)nc4c3F)N(C1)C2` [Example 406, (17S,19R)-9-Chloro-30-fluoro-24-(((2R,7aS)-2-fluorotetrahydro-1H-pyrrolo[1,2-a]pyrrol-7a(5H)-yl)methoxy)-15-oxa-5,6,21,23,25,29-hexaazahexacyclo[24.3.1.1˜17,21˜.0˜2,10˜.0˜3,7˜.0˜22,27˜]hentriaconta-1(30),2,4,7,9,22,24,26,28-nonaen-19-ol], the IC50 stood at 1940 nM in the assay on AsPC-1 cells (AsPC-1 cells (G12D), 72 h); 261 nM in assay [1] (setting [7]); 4 nM in assay [2] (setting [8]); 21 nM in assay [3] (setting [9]).
